Values of other authors in patent US20090012101A1, “Mucarinic Agonists and Methods of Use Thereof” (UNIVERSITY OF TOLEDO, priority 2005, published 2009).

Assays:
M4 receptors = target: T1, M4 receptors (Homo sapiens, UniProt P08173)
T1 sequence (P08173 1-479): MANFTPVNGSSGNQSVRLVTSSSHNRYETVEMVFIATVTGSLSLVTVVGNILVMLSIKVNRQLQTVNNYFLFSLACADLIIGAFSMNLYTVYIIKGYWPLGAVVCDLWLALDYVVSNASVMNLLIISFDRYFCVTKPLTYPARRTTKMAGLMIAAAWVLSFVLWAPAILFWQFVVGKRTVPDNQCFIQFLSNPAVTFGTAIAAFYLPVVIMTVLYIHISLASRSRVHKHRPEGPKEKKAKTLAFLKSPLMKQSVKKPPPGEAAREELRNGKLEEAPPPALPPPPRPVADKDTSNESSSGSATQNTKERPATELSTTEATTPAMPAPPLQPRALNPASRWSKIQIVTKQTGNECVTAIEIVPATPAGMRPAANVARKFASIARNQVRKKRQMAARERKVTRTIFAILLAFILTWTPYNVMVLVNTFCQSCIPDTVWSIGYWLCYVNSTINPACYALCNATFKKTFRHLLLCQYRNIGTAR

M2 receptors = target: T2, M2 receptors (Homo sapiens, UniProt P08172)
T2 sequence (P08172 1-466): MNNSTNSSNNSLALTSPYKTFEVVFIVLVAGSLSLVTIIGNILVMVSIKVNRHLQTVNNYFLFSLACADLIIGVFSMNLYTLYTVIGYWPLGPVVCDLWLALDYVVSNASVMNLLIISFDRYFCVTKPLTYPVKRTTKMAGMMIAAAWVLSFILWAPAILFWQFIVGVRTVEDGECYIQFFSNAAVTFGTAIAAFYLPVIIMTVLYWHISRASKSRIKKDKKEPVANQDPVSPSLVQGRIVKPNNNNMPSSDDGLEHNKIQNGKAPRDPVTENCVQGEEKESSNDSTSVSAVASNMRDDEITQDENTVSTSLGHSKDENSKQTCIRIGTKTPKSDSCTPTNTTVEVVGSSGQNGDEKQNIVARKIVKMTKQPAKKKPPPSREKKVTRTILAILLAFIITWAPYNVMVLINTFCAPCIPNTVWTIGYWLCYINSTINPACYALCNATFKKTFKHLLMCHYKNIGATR

[1] = preclinical studies

With CCCCCCOc1nsnc1C1=CCCN(C)C1 [xanomeline] as the compound, how does the “unwanted side effects associated with activation of M3 receptors” value read?
The value was “salivation, diarrhea and profuse sweating”.

What about the “effect on psychiatric symptoms such as hallucinations” value (phase II clinical trials, Alzheimer's patients) of the same compound?
The value was “significantly improved psychiatric symptoms”.

What does the source list for CCCCSc1nsnc1[C@H]1CN2CCC[C@H]1C2 [BuTAC, (5R,6R)-6-(3-butylthio-1,2,5-thiadiazol-4-yl)-1-azabicyclo[3.2.1]octane]?
agonist activity at M4 receptors (M4 receptors): partial agonist activity; agonist activity at M2 receptors (M2 receptors): partial agonist activity; antipsychotic activity [1]: strong antipsychotic activity
